According to US10287267B2, “Isoquinolin-3-yl carboxamides and preparation and use thereof” (Samumed, LLC, priority 2016, dated 2019):

Key:
[1] = tested on: Wnt pathway (Sp5-Luc reporter, TCF/LEF binding sites) in SW480 colon carcinoma cells; test: Screening assay for Wnt activity: Sp5-Luc reporter gene assay; format: cell-based, human; details: Homo sapiens; for inhibition at 10 µM: SW480, read-out: percent inhibition at 10 μM; for EC50: Sp5-Luc reporter, SW480 cells, 36 to 48 hours;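 for all read-outs here: firefly luciferase luminescence read in stably transduced SW480 cells carrying the Sp5 promoter reporter with eight TCF/LEF sites, compounds given in 0.1% DMSO final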
Experimental: The screening assay for Wnt activity is described as follows.
Following incubation, 15 μl of BriteLite Plus luminescence reagent (Perkin Elmer) was added to each well of the 384-well assay plates. The plates were placed on an orbital shaker for 2 min and then luminescence was quantified using the Envision (Perkin Elmer) plate reader.

[2] = biological target: recombinant DYRK1A kinase (Homo sapiens (Human), UniProt Q13627); test: DYRK1A kinase assay (Ser/Thr 18 peptide Z-lyte FRET); format: biochemical; details: 30 μM ATP, 1 h room temperature;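 note: Read-out is the coumarin to fluorescein emission ratio, referenced to unphosphorylated (0%) and phosphorylated (100%) Ser/Thr 18 peptide controls, values from dose-response curves by non-linear regression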
recombinant GSK3β kinase = recombinant GSK3β kinase (Homo sapiens (Human), UniProt P49841); test: GSK3β kinase assay (Ser/Thr 09 peptide Z-lyte FRET); format: biochemical; details: 46 μM ATP, 1 h room temperature;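 note: kinase activity read as coumarin to fluorescein emission ratio, 11-point threefold dilutions from 10 µM to 0.0003 µM in duplicate, unphosphorylated and phosphorylated peptide as 0% and 100% controls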
[3] = tested on: Tau phosphorylation at Ser396 (pSer396); test: Tau phosphorylation assay (pSer396 ELISA / western blot) in SH-SY5Y cells; format: cell-based, human; details: Homo sapiens; SH-SY5Y cells, overnight (16-18 h) exposure; read-out: pSer396 Tau EC50;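 note: EC50 for reduction of Tau pSer396 in lysed cells, measured by colorimetric ELISA or chemiluminescent western blot, both using the same pSer396 antibody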
[4] = tested on: SW480 colon carcinoma cells; test: Cell viability assay (CellTiter-Glo); format: cell-based, human; details: Homo sapiens; for EC50: 96 h, SW480 cells, CellTiter-Glo, four days incubation; for inhibition at 10 µM: SW480, read-out: percent inhibition at 10 μM
[5] = tested on: α-smooth muscle actin (αSMA) positive LL29 cells; test: Inhibition of fibrotic process: αSMA in TGF-β1 treated primary human fibroblasts from IPF patients; format: cell-based; details: Homo sapiens, Fibroblast; for EC50: 96 h, Table 8, LL29 fibroblasts from IPF patients, TGF-β1 20 ng/mL, 4 days, dose-response 10 μM to 0.94 nM; for inhibition at 10 µM: read-out: percent value in parentheses beside EC50 >10 μM;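 for all read-outs here: controls were TGF-β1 stimulated wells with DMSO vehicle (positive) and cells given DMSO alone (negative), cultured in F12 medium with 1% fetal bovine serum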
IL-6 = IL-6 inhibition in LPS-stimulated human peripheral blood mononuclear cells (HTRF); format: cell-based; details: Homo sapiens, PBMC; for inhibition at 10 µM: read-out: percent value in parentheses beside EC50 >10 μM; for EC50: Table 9, huPBMCs, LPS 50 ng/mL, 22 hours, dose-response starting from 10 μM;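 for all read-outs here: IL-6 detected by HTRF with an XL665- and Cryptate-labelled anti-IL-6 antibody pair, samples run in duplicate, EC50 obtained from a four-parameter Levenberg-Marquardt curve fit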
Experimental: After 22 hour incubation, a mixture of anti-IL6 XL665 and anti-IL-6 Cryptate diluted in reconstitution buffer (Catalog #62IL6PEC, Cisbio Inc., Bedford, Mass.) was added to each well. […] All samples were processed in duplicate. […] EC50 was determined using software generated by Dotmatics Limited (Windhill Bishops Stortford Herts, UK) using the Levenberg-Marquardt 4 parameter fitting procedure with finite different gradients.

Chain of recombinant GSK3β kinase (P49841 whole entry): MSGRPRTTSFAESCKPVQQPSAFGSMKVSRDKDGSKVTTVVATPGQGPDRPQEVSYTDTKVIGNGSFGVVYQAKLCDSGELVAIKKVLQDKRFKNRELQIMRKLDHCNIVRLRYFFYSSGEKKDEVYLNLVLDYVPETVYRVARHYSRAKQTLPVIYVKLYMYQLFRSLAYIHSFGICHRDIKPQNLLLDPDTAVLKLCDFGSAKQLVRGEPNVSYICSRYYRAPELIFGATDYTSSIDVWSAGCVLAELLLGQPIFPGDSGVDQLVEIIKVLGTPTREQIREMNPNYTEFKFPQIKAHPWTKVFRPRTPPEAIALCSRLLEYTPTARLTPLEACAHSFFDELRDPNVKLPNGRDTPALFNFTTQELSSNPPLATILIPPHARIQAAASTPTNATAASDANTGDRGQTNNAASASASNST

SMILES | inhibition at 10 µM [1] [%] | EC50 [1] [nM] | EC50 [2] [nM] | EC50 (recombinant GSK3β kinase) [nM] | EC50 [3] [nM] | EC50 [4] [nM] | inhibition at 10 µM [4] [%] | EC50 [5] [nM] | inhibition at 10 µM [5] [%] | inhibition at 10 µM (IL-6) [%] | EC50 (IL-6) [nM]
Cn1cncc1-c1ccc2cnc(NC(=O)C3CNC3)cc2c1 [Compound 535, N-(6-(1-Methyl-1H-imidazol-5-yl)isoquinolin-3-yl)azetidine-3-carboxamide] | 44.9 | > 10000 | 4.5 | 87 | 6200 | > 10000 | 42 | > 10000 | 17.7 | 3.1 | > 10000
Cn1cncc1-c1ccc2cnc(NC(=O)[C@H]3CCCO3)cc2c1 [Compound 537, (R)—N-(6-(1-Methyl-1H-imidazol-5-yl)isoquinolin-3-yl)tetrahydrofuran-2-carboxamide] | – | 4800 | 8.9 | 95 | 451 | 8300 | – | 599 | – | – | 1240
COCCN1CCC(C(=O)Nc2cc3cc(-c4cncn4C)ccc3cn2)CC1 [Compound 547, 1-(2-Methoxyethyl)-N-(6-(1-methyl-1H-imidazol-5-yl)isoquinolin-3-yl) piperidine-4-carboxamide] | – | 2230 | 3.4 | 104 | 379 | 931 | – | 160 | – | – | 1120
CC(C)CN1CCC(C(=O)Nc2cc3cc(-c4cncn4C)ccc3cn2)CC1 [Compound 554, 1-Isobutyl-N-(6-(1-methyl-1H-imidazol-5-yl)isoquinolin-3-yl)piperidine-4-carboxamide] | – | 272 | 1.4 | 38 | 95 | 366 | – | 190 | – | – | 439
Cn1cncc1-c1ccc2cnc(NC(=O)C3CCN(S(C)(=O)=O)CC3)cc2c1 [Compound 561, N-(6-(1-Methyl-1H-imidazol-5-yl)isoquinolin-3-yl)-1-(methylsulfonyl) piperidine-4-carboxamide] | – | 1460 | 1.5 | 12 | 395 | 924 | – | 600 | – | – | 634
CC(C(=O)Nc1cc2cc(-c3cncn3C)ccc2cn1)N1CCCC1 (stereo not drawn) [Compound 579, N-(6-(1-Methyl-1H-imidazol-5-yl)isoquinolin-3-yl)-2-(pyrrolidin-1-yl) propanamide] | – | 899 | 25 | 48 | 62 | 954 | – | 167 | – | – | 1020
CC(C)CN1CCC(C(=O)Nc2cc3cc(-c4cn[nH]c4)ccc3cn2)CC1 [Compound 643, N-(6-(1H-Pyrazol-4-yl)isoquinolin-3-yl)-1-isobutylpiperidine-4-carboxamide] | – | 129 | 1.8 | 49 | 49 | 115 | – | 138 | – | – | 129
O=C(Nc1cc2cc(-c3cncs3)ccc2cn1)C1CC(F)(F)C1 [Compound 699, 3,3-Difluoro-N-(6-(thiazol-5-yl)isoquinolin-3-yl)cyclobutane-1-carboxamide] | – | 541 | 2.1 | 24 | 423 | 834 | – | 234 | – | – | 410
CN1CC2(CC(C(=O)Nc3cc4cc(-c5cncs5)ccc4cn3)C2)C1 [Compound 700, 2-Methyl-N-(6-(thiazol-5-yl)isoquinolin-3-yl)-2-azaspiro[3.3]heptane-6-carboxamide] | – | 771 | 2.2 | 49 | 513 | 623 | – | 275 | – | – | 380
O=C(Nc1cc2cc(-c3cncs3)ccc2cn1)C1(F)CCCCC1 [Compound 704, 1-Fluoro-N-(6-(thiazol-5-yl)isoquinolin-3-yl)cyclohexane-1-carboxamide] | 10.2 | > 10000 | 8.2 | 1830 | 10000 | > 10000 | 18.1 | 4380 | – | 4.8 | > 10000
CN(C)[C@H]1CC[C@H](C(=O)Nc2cc3cc(-c4cncs4)ccc3cn2)CC1 [Compound 707, trans-4-(Dimethylamino)-N-(6-(thiazol-5-yl)isoquinolin-3-yl)cyclohexane-1-carboxamide] | – | 472 | 0.9 | 46 | 449 | 947 | – | 4240 | – | – | 446
O=C(Nc1cc2cc(-c3cncs3)ccc2cn1)[C@H]1CC[C@H](CN2CC(F)C2)CC1 [Compound 711, trans-4-((3-Fluoroazetidin-1-yl)methyl)-N-(6-(thiazol-5-yl)isoquinolin-3-yl)cyclohexane-1-carboxamide] | – | 703 | 1 | 67 | 443 | 706 | – | 540 | – | – | 1080
O=C(Nc1cc2cc(-c3cncs3)ccc2cn1)C1CNC1 [Compound 713, N-(6-(Thiazol-5-yl)isoquinolin-3-yl)azetidine-3-carboxamide] | – | 9250 | 3.1 | 98 | 5000 | 6980 | – | > 10000 | 37.6 | – | 3630
CN1CCC(C(=O)Nc2cc3cc(-c4cncs4)ccc3cn2)CC1 [Compound 718, 1-Methyl-N-(6-(thiazol-5-yl)isoquinolin-3-yl)piperidine-4-carboxamide] | – | 589 | 1.3 | 79 | 294 | 483 | – | 168 | – | – | 406
O=C(Nc1cc2cc(-c3cncs3)ccc2cn1)C1CCN(C2COC2)CC1 [Compound 737, 1-(Oxetan-3-yl)-N-(6-(thiazol-5-yl)isoquinolin-3-yl)piperidine-4-carboxamide] | – | 1290 | 1 | 62 | 865 | 4340 | – | 80 | – | – | 1180
O=C(Nc1cc2cc(-c3cncs3)ccc2cn1)C1CCN(C(=O)CN2CCCC2)CC1 [Compound 741, 1-(2-(Pyrrolidin-1-yl)acetyl)-N-(6-(thiazol-5-yl)isoquinolin-3-yl)piperidine-4-carboxamide] | – | 444 | 0.9 | 107 | 528 | 462 | – | 175 | – | – | 380
CN1CCC(N2CCC(C(=O)Nc3cc4cc(-c5cncs5)ccc4cn3)CC2)CC1 [Compound 743, 1′-Methyl-N-(6-(thiazol-5-yl)isoquinolin-3-yl)-[1,4′-bipiperidine]-4-carboxamide] | – | 9490 | 1.3 | 63 | 432 | 1540 | – | 447 | – | – | 1130
CC(C(=O)Nc1cc2cc(-c3cncs3)ccc2cn1)N1CCCC1 (stereo not drawn) [Compound 758, 2-(Pyrrolidin-1-yl)-N-(6-(thiazol-5-yl)isoquinolin-3-yl)propanamide] | – | 1250 | 24.3 | 50 | 384 | 1340 | – | 265 | – | – | 2870
O=C(CN1CCCCC1)Nc1cc2cc(-c3cncs3)ccc2cn1 [Compound 760, 2-(Piperidin-1-yl)-N-(6-(thiazol-5-yl)isoquinolin-3-yl)acetamide] | – | 3970 | 3.8 | 133 | 1200 | 3280 | – | 765 | – | – | 1240
CN1CCN(CC(=O)Nc2cc3cc(-c4cncs4)ccc3cn2)CC1 [Compound 767, 2-(4-Methylpiperazin-1-yl)-N-(6-(thiazol-5-yl)isoquinolin-3-yl)acetamide] | – | 3220 | 4.3 | 157 | 1000 | 9050 | – | > 10000 | 33.2 | – | 3820
O=C(CN1CCOCC1)Nc1cc2cc(-c3cncs3)ccc2cn1 [Compound 773, 2-Morpholino-N-(6-(thiazol-5-yl)isoquinolin-3-yl)acetamide] | – | 6550 | 3.8 | 219 | 2200 | > 10000 | 48.4 | > 10000 | 30.3 | – | 3480
Cn1ncc(-c2ccc3cnc(NC(=O)C(C)(C)F)cc3c2)c1CN1CCCCC1 [Compound 784, 2-Fluoro-2-methyl-N-(6-(1-methyl-5-(piperidin-1-ylmethyl)-1H-pyrazol-4-yl)isoquinolin-3-yl)propanamide] | – | 5880 | 10.8 | 133 | 2200 | > 10000 | 39.7 | > 10000 | 37.4 | 3.7 | > 10000
